Converted amounts (≈) assume the structure as drawn.
Tested on: Mycobacterium tuberculosis variant bovis
Assay: Antituberculosis activity against Mycobacterium bovis ATCC 25523
Format: functional

| SMILES | MIC |
| --- | --- |
| COc1ccnc(NC(=O)NS(=O)(=O)c2cc(NC(=O)CCl)ccc2Cl)n1 | 10 µg/mL (≈ 23 µM) |
| Cc1ccnc(NC(=O)NS(=O)(=O)c2cc(NC(=O)CCl)ccc2Cl)n1 | 10 µg/mL (≈ 23.9 µM) |

Source: ChEMBL document CHEMBL1949543, “Synthesis and evaluation of novel monosubstituted sulfonylurea derivatives as antituberculosis agents” (Eur J Med Chem, 2012)
